Article PMC10571035 (Science translational medicine, 2020)

Target: T1, Heat shock factor 1 (HSF1) (Homo sapiens, UniProt Q00613)
T1 sequence (Q00613 15-120 limits assumed): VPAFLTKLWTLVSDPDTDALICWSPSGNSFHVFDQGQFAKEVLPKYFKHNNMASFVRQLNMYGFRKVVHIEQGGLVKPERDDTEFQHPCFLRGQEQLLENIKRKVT
Test: SPR Kd
Assay type: binding

O=C(Nc1ccc(F)cc1)Nc1ccc(Cl)c([N+](=O)[O-])c1 [DTHIB]
Kd: 160 nM
